In brackets after ≈: the same amount, converted by molar mass. Read-outs that look alike come from different tables or passages of the source.
What was measured:
E. cloacae 963 = test: agar plate dilution method, MIC against E. cloacae 963; assay type: cell-based; conditions: read-out: Minimum Inhibitory Concentration (MIC)
Protocol: (§1) The in vitro antibacterial activities of the compounds of the present invention against various microorganisms, were measured by the following agar plate dilution method. One platinum loopfull of each test microorganism incubated overnight in Mueller Hinton broth, was inoculated to Mueller Hinton agar (inoculum size: 10^6 CFU/ml) Such culture media containing various antibiotics in various concentrations were prepared After incubation at 37° C. for 16 hours, the minimum inhibitory concentrations (MIC: μg/ml) were measured. As comparative compounds, cefotaxime, oeftazidime and the compounds disclosed in Example 2 of Japanese Unexamined Patent Publication No. 215690/1985 e.g. sodium 7-[2-(2-aminothiazol-4-yl)-2-ethoxyiminoacetamido]-3-(1-carboxylatemethylpyridinio-4-yl)thiomethyl-3-cephem-4-carboxylate (hereinafter referred to simply as "Reference Example A") were employed.

[1] = test system: sensitive and resistant Gram-positive bacteria and Gram-negative bacteria particularly glucose non-fermentative Gram-negative rods; test: antibacterial activity and spectrum (in words); assay type: cell-based; conditions: in vitro
Protocol: as §1

P. vulgaris No. 33 = test: agar plate dilution method, MIC against P. vulgaris No. 33; assay type: cell-based; conditions: Proteus vulgaris; P. vulgaris No. 33 (lactamase-producing strain); 10^6 CFU/ml, 37° C., 16 hours; read-out: Minimum Inhibitory Concentration (MIC)
Protocol: as §1

E. coli NIHJ JC2 = test: agar plate dilution method, MIC against E. coli NIHJ JC2; assay type: cell-based; conditions: Escherichia coli, NIHJJC2; E. coli NIHJ JC2; 10^6 CFU/ml, 37° C., 16 hours; read-out: Minimum Inhibitory Concentration (MIC)
Protocol: as §1

P. vulgaris HX-19 = test: agar plate dilution method, MIC against P. vulgaris HX-19; assay type: cell-based; conditions: Proteus vulgaris, HX19, 16 h, read-out: Minimum Inhibitory Concentration (MIC)
Protocol: as §1

K. pneumoniae No. 42 = test: agar plate dilution method, MIC against K. pneumoniae No. 42; assay type: cell-based; conditions: Klebsiella pneumoniae; K. pneumoniae No. 42 (lactamase-producing strain); 10^6 CFU/ml, 37° C., 16 hours; read-out: Minimum Inhibitory Concentration (MIC)
Protocol: as §1

S. aureus BB5703 = test: agar plate dilution method, MIC against S. aureus BB5703; assay type: cell-based; conditions: Staphylococcus aureus, BB5703, 16 h, read-out: Minimum Inhibitory Concentration (MIC)
Protocol: as §1

Ps. cepacia 23 = test: agar plate dilution method, MIC against Ps. cepacia 23; assay type: cell-based, Pseudomonas cepacia; conditions: Burkholderia cepacia, 23, 16 h, read-out: Minimum Inhibitory Concentration (MIC)
Protocol: as §1

E. coli CSH(RE45) = test: agar plate dilution method, MIC against E. coli CSH(RE45); assay type: cell-based; conditions: Escherichia coli, 16 h, read-out: Minimum Inhibitory Concentration (MIC)
Protocol: as §1

E. coli CSH2 (RK1) = test: agar plate dilution method, MIC against E. coli CSH2 (RK1); assay type: cell-based; conditions: Escherichia coli, 16 h, read-out: Minimum Inhibitory Concentration (MIC)
Protocol: as §1

K. pneumoniae PCI-602 = test: agar plate dilution method, MIC against K. pneumoniae PCI-602; assay type: cell-based; conditions: Klebsiella pneumoniae, PCI602, 16 h, read-out: Minimum Inhibitory Concentration (MIC)
Protocol: as §1

Ps. maltophilia GN 12873 = test: agar plate dilution method, MIC against Ps. maltophilia GN 12873; assay type: cell-based, Pseudomonas maltophilia; conditions: Stenotrophomonas maltophilia, GN12873; Ps. maltophilia GN 12873 (lactamase-producing strain); 10^6 CFU/ml, 37° C., 16 hours; read-out: Minimum Inhibitory Concentration (MIC)
Protocol: as §1

M. luteus ATCC9341 = test: agar plate dilution method, MIC against M. luteus ATCC9341; assay type: cell-based; conditions: Micrococcus luteus; M. luteus ATCC9341; 10^6 CFU/ml, 37° C., 16 hours; read-out: Minimum Inhibitory Concentration (MIC)
Protocol: as §1

S. marcescens IAM 1184 = test: agar plate dilution method, MIC against S. marcescens IAM 1184; assay type: cell-based; conditions: Serratia marcescens, IAM1184; S. marcescens IAM 1184; 10^6 CFU/ml, 37° C., 16 hours; read-out: Minimum Inhibitory Concentration (MIC)
Protocol: as §1

C. freundii GN346 = test: agar plate dilution method, MIC against C. freundii GN346; assay type: cell-based; conditions: Citrobacter freundii; C. freundii GN346 (lactamase-producing strain); 10^6 CFU/ml, 37° C., 16 hours; read-out: Minimum Inhibitory Concentration (MIC)
Protocol: as §1

Ps. aeruginosa AKR17 = test: agar plate dilution method, MIC against Ps. aeruginosa AKR17; assay type: cell-based; conditions: Pseudomonas aeruginosa, read-out: Minimum Inhibitory Concentration (MIC)
Protocol: as §1

E. cloacae Nek 39 = test: agar plate dilution method, MIC against E. cloacae Nek 39; assay type: cell-based; conditions: Enterobacter cloacae, NEK39; E. cloacae Nek 39 (lactamase-producing strain); 10^6 CFU/ml, 37° C., 16 hours; read-out: Minimum Inhibitory Concentration (MIC)
Protocol: as §1

S. epidermidis IAM12012 = test: agar plate dilution method, MIC against S. epidermidis IAM12012; assay type: cell-based; conditions: Staphylococcus epidermidis, read-out: Minimum Inhibitory Concentration (MIC)
Protocol: as §1

Ps. aeruginosa AK 109 = test: agar plate dilution method, MIC against Ps. aeruginosa AK 109; assay type: cell-based; conditions: Pseudomonas aeruginosa, read-out: Minimum Inhibitory Concentration (MIC)
Protocol: as §1

K. oxytoca GN10650 = test: agar plate dilution method, MIC against K. oxytoca GN10650; assay type: cell-based; conditions: Klebsiella oxytoca; K. oxytoca GN10650 (lactamase-producing strain); 10^6 CFU/ml, 37° C., 16 hours; read-out: Minimum Inhibitory Concentration (MIC)
Protocol: as §1

A. calcoaceticus No. 4 = test: agar plate dilution method, MIC against A. calcoaceticus No. 4; assay type: cell-based; conditions: Acinetobacter calcoaceticus, read-out: Minimum Inhibitory Concentration (MIC)
Protocol: as §1

M. morganii GN5407 = test: agar plate dilution method, MIC against M. morganii GN5407; assay type: cell-based; conditions: Morganella morganii; M. morganii GN5407 (lactamase-producing strain); 10^6 CFU/ml, 37° C., 16 hours; read-out: Minimum Inhibitory Concentration (MIC)
Protocol: as §1

S. aureus JS1 = test: agar plate dilution method, MIC against S. aureus JS1; assay type: cell-based; conditions: Staphylococcus aureus, read-out: Minimum Inhibitory Concentration (MIC)
Protocol: as §1

Ps. aeruginosa IFO3445 = test: agar plate dilution method, MIC against Ps. aeruginosa IFO3445; assay type: cell-based; conditions: Pseudomonas aeruginosa, read-out: Minimum Inhibitory Concentration (MIC)
Protocol: as §1

C. freundii GN346/16 = test: agar plate dilution method, MIC against C. freundii GN346/16; assay type: cell-based; conditions: Citrobacter freundii, read-out: Minimum Inhibitory Concentration (MIC)
Protocol: as §1

E. coli GN5482 = test: agar plate dilution method, MIC against E. coli GN5482; assay type: cell-based; conditions: Escherichia coli; E. coli GN5482 (lactamase-producing strain); 10^6 CFU/ml, 37° C., 16 hours; read-out: Minimum Inhibitory Concentration (MIC)
Protocol: as §1

S. marcescens No. 16-2 = test: agar plate dilution method, MIC against S. marcescens No. 16-2; assay type: cell-based; conditions: Serratia marcescens, read-out: Minimum Inhibitory Concentration (MIC)
Protocol: as §1

S. aureus 209P NIHJ-JC1 = test: agar plate dilution method, MIC against S. aureus 209P NIHJ-JC1; assay type: cell-based; conditions: Staphylococcus aureus; S. aureus 209P NIHJ-JC1; 10^6 CFU/ml, Mueller Hinton agar, 37° C., 16 hours; read-out: Minimum Inhibitory Concentration (MIC)
Protocol: as §1

[2] = Enterobacter cloacae, E. cloacae 963, 10^6 CFU/ml, 37° C., 16 hours
[3] = AK109, Ps. aeruginosa AK 109, 10^6 CFU/ml, 37° C., 16 hours
[4] = A. calcoaceticus No. 4, 10^6 CFU/ml, 37° C., 16 hours
[5] = C. freundii GN346/16, 10^6 CFU/ml, 37° C., 16 hours
[6] = Ps. aeruginosa AKR17, 10^6 CFU/ml, 37° C., 16 hours

Compound	MIC (E. cloacae 963; [2]) [µg/mL]	MIC (P. vulgaris No. 33) [µg/mL]	MIC (E. coli NIHJ JC2) [µg/mL]	MIC (P. vulgaris HX-19) [µg/mL]	MIC (K. pneumoniae No. 42) [µg/mL]	MIC (S. aureus BB5703) [µg/mL]	MIC (Ps. cepacia 23) [µg/mL]	MIC (E. coli CSH(RE45)) [µg/mL]	MIC (E. coli CSH2 (RK1)) [µg/mL]	MIC (K. pneumoniae PCI-602) [µg/mL]	MIC (Ps. maltophilia GN 12873) [µg/mL]	MIC (M. luteus ATCC9341) [µg/mL]	MIC (S. marcescens IAM 1184) [µg/mL]	MIC (C. freundii GN346) [µg/mL]	MIC (E. cloacae Nek 39) [µg/mL]	MIC (S. epidermidis IAM12012; IAM12012, 16 h) [µg/mL]	MIC (K. oxytoca GN10650) [µg/mL]	MIC (M. morganii GN5407) [µg/mL]	MIC (E. coli GN5482) [µg/mL]	MIC (S. aureus 209P NIHJ-JC1) [µg/mL]	also measured
Nc1nc(C(=NOC(C(=O)O)c2ccc(O)c(O)c2)C(=O)NC2C(=O)N3C(C(=O)[O-])=C(CSc4cc[n+](CC(=O)O)cc4)CSC23)cs1 (stereo not drawn) [Example 5, 7-[2-(2-aminothiazol-4-yl)-2-(α-carboxy-3,4-dihydroxybenzyloxyimino)acetamido]-3-(1-carboxymethylpyridinio-4-yl)thiomethyl-3-cephem-4-carboxylate (syn-isomer)]	0.1 (≈ 0.14 µM)	0.05 (≈ 0.0698 µM)	0.1 (≈ 0.14 µM)	0.025 (≈ 0.0349 µM)	0.2 (≈ 0.279 µM)	3.12 (≈ 4.35 µM)	< 0.006	0.05 (≈ 0.0698 µM)	0.05 (≈ 0.0698 µM)	< 0.006	> 100	0.78 (≈ 1.09 µM)	0.1 (≈ 0.14 µM)	25 (≈ 34.9 µM)	0.2 (≈ 0.279 µM)	1.56 (≈ 2.18 µM)	0.05 (≈ 0.0698 µM)	0.1 (≈ 0.14 µM)	0.2 (≈ 0.279 µM)	0.78 (≈ 1.09 µM)	antibacterial activities and antibacterial spectrum (in words) [1]: excellent antibacterial activities and a broad antibacterial spectrum; MIC (Ps. aeruginosa AKR17; AKR17, 16 h): 1.56 µg/mL (≈ 2.18 µM); MIC (Ps. aeruginosa AK 109; [3]): 0.78 µg/mL (≈ 1.09 µM); MIC (A. calcoaceticus No. 4; [4]): 0.2 µg/mL (≈ 0.279 µM); MIC (S. aureus JS1; JS1, 16 h): 6.25 µg/mL (≈ 8.72 µM); MIC (Ps. aeruginosa IFO3445; Ps. aeruginosa IFO3445, 10^6 CFU/ml, 37° C., 16 hours): 0.39 µg/mL (≈ 0.544 µM); MIC (C. freundii GN346/16; [5]): 0.39 µg/mL (≈ 0.544 µM); MIC (S. marcescens No. 16-2; NO.162, S. marcescens No. 16-2 (lactamase-producing strain), 10^6 CFU/ml, 37° C., 16 hours): 0.78 µg/mL (≈ 1.09 µM)
Nc1nc(/C(=N/Oc2ccccc2)C(=O)NC2C(=O)N3C(C(=O)[O-])=C(CSc4cc[n+](CC(=O)O)cc4)CSC23)cs1 (stereo not drawn) [Example 7, sodium 7-[2-(2-aminothiazol-4-yl)-2-phenoxyiminoacetamido]-3-(1-carboxylatemethylpyridinio-4-yl)thiomethYl-3-cephem-4-carboxylate (syn-isomer)]		0.78	0.78	< 0.006	3.12	3.12	3.12	0.78	0.78	0.025	> 100	0.1	0.78	50	12.5	0.2	25	0.78	1.56	0.39	MIC (E. cloacae 963; Enterobacter cloacae, 963, 16 h): 3.12 µg/mL; MIC (Ps. aeruginosa AKR17; [6]): > 100 µg/mL; MIC (Ps. aeruginosa AK 109; [3]): 25 µg/mL; MIC (A. calcoaceticus No. 4; NO.4, 16 h): 3.12 µg/mL; MIC (S. aureus JS1; JS1, 16 h): 12.5 µg/mL; MIC (Ps. aeruginosa IFO3445; IFO3445, 16 h): 12.5 µg/mL; MIC (C. freundii GN346/16; GN346, 16 h): 1.56 µg/mL; MIC (S. marcescens No. 16-2; NO.162, 16 h): 12.5 µg/mL
CCON=C(C(=O)NC1C(=O)N2C(C(=O)[O-])=C(CSc3cc[n+](CC(=O)O)cc3)CSC12)c1csc(N)n1 (stereo not shown) [Reference Example A, sodium 7-[2-(2-aminothiazol-4-yl)-2-ethoxyiminoacetamido]-3-(1-carboxylatemethylpyridinio-4-yl)thiomethyl-3-cephem-4-carboxylate, reference compound]	0.1	0.05	0.05	< 0.006	0.05	3.12	6.25	0.05	0.025	< 0.006	> 100	0.1	0.05	25	1.56		3.12	0.05	0.2	0.39	MIC (Ps. aeruginosa AKR17; [6]): > 100 µg/mL; MIC (S. epidermidis IAM12012; S. epidermidis IAM12012, 10^6 CFU/ml, 37° C., 16 hours): 0.05 µg/mL; MIC (Ps. aeruginosa AK 109; AK109, 16 h): 12.5 µg/mL; MIC (A. calcoaceticus No. 4; [4]): 100 µg/mL; MIC (S. aureus JS1; S. aureus JS1 (methicilline resistant; lactamase-producing strain), 10^6 CFU/ml, 37° C., 16 hours): 100 µg/mL; MIC (Ps. aeruginosa IFO3445; IFO3445, 16 h): 6.25 µg/mL; MIC (C. freundii GN346/16; [5]): 0.1 µg/mL; MIC (S. marcescens No. 16-2; NO.162, 16 h): 6.25 µg/mL
